In patent publication US20260209286A1, “SEA CUCUMBER-DERIVED HOLOTOCIN PEPTIDE AND USES THEREOF” (NATIONAL MARINE BIODIVERSITY INSTITUTE OF KOREA, priority 2022, published 2026):
Where two headings read alike, the source gives them in different places. Where a SMILES comes first, the peptide text is derived from it. Bridges are numbered along the chain shown (N, C = ends). Where no end group is shown, it is not given here.

Columns and labels:
[1] = system: kidney cell line 293T; test: CCK-8 cytotoxicity assay in 293T cells; settings: 10, 1 and 0.1 μM, 24 and 72 hours
[2] = system: epidermal keratinocytes HaCaT; test: CCK-8 cytotoxicity assay in HaCaT cells; settings: 10, 1 and 0.1 μM, 24 and 72 hours
[3] = system: Sox2; test: RT-PCR of regeneration-related gene Sox2 in HaCaT skin cells; type: cell-based; settings: 1 μM, 24 hours
[4] = system: Oct4; test: RT-PCR of regeneration-related gene Oct4 in HaCaT skin cells; type: cell-based; settings: 1 μM, 24 hours
[5] = system: rat hypothalamic neurons; settings: cited from earlier work
[6] = system: kidney cell line 293T
[7] = system: epidermal keratinocytes HaCaT
[8] = system: kidney cell line 293T; test: Size of stem cell spheroids formed in 293T cells; type: cell-based; settings: 10, 1 and 0.1 μM, cultured 10 days
Protocol: (§1) For the formation of spheroids, the cells prepared in Preparation Example 2 were cultured in Aggrewell 800 plates pretreated with an anti-Adherence rinsing solution, using a DMEM-F12 medium containing a stem cell-permissive medium supplemented with 20 ng/ml EGF, 20 ng/ml basic fibroblast growth factor (bFGf), and B27 Serum-free Supplement (50×; Invitrogen).
(§2) After the culture period, the spheroids were observed under a microscope, and approximately 25 spheroids were measured.
(§3) Specifically, FIGS. 5 to 8 show the results of adding the peptides prepared in Preparation Example 1 to the renal cell line 293T, and FIGS. 9 to 12 show the results of adding the same peptides to the epidermal keratinocytes HaCaT.

[9] = system: epidermal keratinocytes HaCaT; test: Size of stem cell spheroids formed in HaCaT cells; type: cell-based; settings: 10, 1 and 0.1 μM, cultured 10 days
Protocol: as §1, §2, §3

CC[C@H](C)[C@@H]1NC(=O)[C@H](Cc2ccccc2)NC(=O)[C@@H](N)CSSC[C@@H](C(=O)N2CCC[C@H]2C(=O)N[C@@H](CC(C)C)C(=O)NCC(N)=O)NC(=O)[C@H](CC(N)=O)NC(=O)[C@H]([C@@H](C)O)NC1=O [Holotocin(HLT), Holotocin] (H-CFITNCPLG-NH2; disulfide 1-6)
cytotoxicity / cell viability [1]: no changes in cytotoxicity or cell proliferation
cytotoxicity / cell viability [2]: no changes in cytotoxicity or cell proliferation

CC[C@H](C)[C@@H]1NC(=O)[C@H](Cc2ccc(O)cc2)NC(=O)[C@@H](N)CSSC[C@@H](C(=O)N2CCC[C@H]2C(=O)N[C@@H](CC(C)C)C(=O)NCC(N)=O)NC(=O)[C@H](CC(N)=O)NC(=O)[C@H](CCC(N)=O)NC1=O [Oxytocin(OXT), Oxytocin]
expression of stemness-related gene Sox2 ([3]; HaCaT, RT-PCR): induces the expression
expression of stemness-related gene Oct4 ([4]; HaCaT, RT-PCR): induces the expression
size of spheroids ([5]; rat hypothalamic neurons, Salehi et al. 2021): increase the size of spheroids
cytotoxicity / cell viability [1]: no changes in cytotoxicity or cell proliferation
cytotoxicity / cell viability [2]: no changes in cytotoxicity or cell proliferation

NC(=O)CC[C@@H]1NC(=O)[C@H](Cc2ccccc2)NC(=O)[C@H](Cc2ccc(O)cc2)NC(=O)[C@@H](N)CSSC[C@@H](C(=O)N2CCC[C@H]2C(=O)N[C@@H](CCCN=C(N)N)C(=O)NCC(N)=O)NC(=O)[C@H](CC(N)=O)NC1=O [Vasopressin(AVP), Vasopressin]
expression of stemness-related gene Sox2 [3]: induces the expression
expression of stemness-related gene Oct4 [4]: induces the expression
cytotoxicity / cell viability [6]: no changes in cytotoxicity or cell proliferation
cytotoxicity / cell viability [7]: no changes in cytotoxicity or cell proliferation
size of spheroids [5]: increase the size of spheroids

Octopressin (CFWTNCPVG-NH2; ends and bridges not checked; listed as Octopus vulgaris) [Octopressin(OTP)]
change in the size of the stem cell spheroids (in words) [8]: little or no change in the size
change in the size of the stem cell spheroids (in words) [9]: little or no change in the size
cytotoxicity / cell viability [1]: no changes in cytotoxicity or cell proliferation
cytotoxicity / cell viability [2]: no changes in cytotoxicity or cell proliferation
